Measurements: paper PMC7504721, “Targeting the Initiator Protease of the Classical Pathway of Complement Using Fragment-Based Drug Discovery” (Molecules, 2020)
Like-named read-outs stand apart in the source and are kept apart here.

Key:
classical pathway = assay: Classical pathway-specific ELISA-based complement inhibition assay (C4b deposition, IgM-coated plate, human serum); assay type: biochemical; settings: for IC50: non-linear regression; for inhibition of classical pathway (C4b deposition) relative to non-binding control compound: single 500 µM concentration, triplicate, 1% normal human serum, unpaired t-test p < 0.05
Method: To carry out classical pathway ELISA-based inhibition assays, IgM was dissolved in coating buffer (100 mM Na2CO3/NaHCO3, pH 9.6) to a final concentration of 3 µg/mL and was dispensed into 96-well plates at 100 µL per well. Mannan was dissolved to 2 µg/mL and lipopolysaccharides (LPS) were dissolved to 10 µg/mL in coating buffer for use in lectin and alternative pathway inhibition assays, respectively. Immobilization was allowed to proceed overnight at 25 °C. The immobilization reagent was then removed, followed by three washes in washing buffer (50 mM Tris pH 8.0, 200 mM NaCl, 0.05% (v/v) Tween-20), and blocked using 100 µL of 1% (w/v) bovine serum albumin in PBS-T for 1 h at 37°C. Blocking buffer was removed and plates were washed three times in washing buffer. Next, 500 µM of each compound, 5% (v/v) DMSO, and 1% (v/v) normal human serum (Innovative Research) (final concentrations) were dissolved in classical/lectin pathway ELISA buffer (20 mM HEPES (pH 7.3), 0.1% (w/v) gelatin, 140 mM NaCl, 2 mM CaCl2, 0.5 mM MgCl2) and added to the IgM-coated plate for 1 h at 37 °C. For the lectin pathway-specific ELISAs shown in Figure 5D, we used C1q-depleted serum from CompTech at 2% (v/v) and thus the classical pathway assays for this analysis were also performed using serum from CompTech at 2% (v/v). For the alternative pathway, 20% (v/v) normal human serum (CompTech) (final concentration) and alternative pathway ELISA buffer (20 mM HEPES, (pH 7.5), 0.1% (w/v) gelatin, 140 mM NaCl, 2 mM CaCl2, 0.5 mM MgCl2) were used in place of classical/lectin pathway ELISA buffer. Plates were then washed three times in wash buffer and each well was filled with 100 µL of α-C4 (HYB 162-02, Santa Cruz Biotechnology) diluted 1:300 for classical and lectin pathway assays and 100 µL of C3b (WM-1, Sigma) diluted 1:300 for alternative pathway assays. Plates were again incubated at 37 °C for 1 h, washed three times, filled with 100 µL of HRP-conjugated goat-α-mouse secondary antibody (diluted 1:3000) (Thermo Scientific, Waltham, MA, USA), and rocked gently for 1 h at 25 °C. After three more washes, 50 µl of substrate (1-step Ultra TMB, Thermo Scientific, Waltham, MA, USA) was added to each well and rocked for 15 min in the dark at 25 °C. The reaction was stopped with 50 µL of 0.16 M sulfuric acid, and the plate was read at 450 nm using an EnSight multimode plate reader (Perkin-Elmer). Each column contained a positive control for full complement activity (5% (v/v) blank DMSO with 1% (v/v) serum) and a negative control for no complement activity (5% (v/v) blank DMSO and no serum). Positive controls (1% (v/v) serum, no inhibitor) were defined as 100% C4b or C3b signal whereas negative controls (no serum) were defined as 0% C4b or C3b signal for each column. Compounds that inhibited complement deposition relative to the control were then evaluated using the same assay setup across a two-fold variable concentration series for each compound (7.8–500 µM). […] All experiments were performed no less than three times.
Statistical analyses were performed using GraphPad Prism version 8. For complement inhibition assays, measures of statistical significance for single-dose experiments were assessed using unpaired Student’s t-tests compared to no inhibitor controls (pathway ELISAs) or non-binding control compounds (classical pathway ELISA). Statistical significance was defined as p < 0.05. Calculation of IC50 values from dose-dependent complement assays were obtained by non-linear regression analysis using a using an inhibitor vs. response model and with 95% confidence intervals reported. For non-linear regression analyses, the top and bottom of each curve were constrained to 100 and 0, respectively.

C1r = system: C1r; parameters: method as in PMID 10206542; settings: cited from earlier work
[1] = dose-response 7.8–500 µM, top and bottom constrained to 100 and 0, read-out: IC50, classical pathway-specific ELISA
[2] = n = 9 (CMP-1611), n = 7 (CMP-1696), read-out: 95% confidence interval of IC50, classical pathway-specific ELISA

CN(C)c1cc(N2CCCC(N)C2)ncn1 (stereo not shown) [CMP-1611]
IC50 (classical pathway; [1]): 660 µM | IC50 (classical pathway; [2]): 560 to 790 µM | inhibition of classical pathway (C4b deposition) relative to non-binding control compound (classical pathway): statistically significant inhibitory activity

COCc1nc(-c2ccc(OC3CNC3)cc2)no1 [CMP-1696]
IC50 (classical pathway; [1]): 520 µM | IC50 (classical pathway; [2]): 410 to 680 µM | inhibition of classical pathway (C4b deposition) relative to non-binding control compound (classical pathway): statistically significant inhibitory activity

N=C(N)c1ccc2cc(OC(=O)c3ccc(N=C(N)N)cc3)ccc2c1 [Futhan, reference compound]
inhibition of C1r (C1r): previously reported to inhibit C1r
